Measurements as given in publication PMC5413351, “Structural basis of protein translocation by the Vps4-Vta1 AAA ATPase” (eLife, 2017).
Where a SMILES comes first, the peptide text is derived from it.

Biological target: T1, Vps4^101-437-Hcp1 (UniProt P52917+Q9I747)
T1 construct: 6xHis (TEV-cleavable) (N, cleaved yes); Pseudomonas aeruginosa Hcp1 fusion partner (candidate entry Q9I747, HCP1_PSEAE); made in house; host or cells: E. coli BL21(DE3)RIL
T1 sequence (P52917+Q9I747 with tags, fused parts or gaps): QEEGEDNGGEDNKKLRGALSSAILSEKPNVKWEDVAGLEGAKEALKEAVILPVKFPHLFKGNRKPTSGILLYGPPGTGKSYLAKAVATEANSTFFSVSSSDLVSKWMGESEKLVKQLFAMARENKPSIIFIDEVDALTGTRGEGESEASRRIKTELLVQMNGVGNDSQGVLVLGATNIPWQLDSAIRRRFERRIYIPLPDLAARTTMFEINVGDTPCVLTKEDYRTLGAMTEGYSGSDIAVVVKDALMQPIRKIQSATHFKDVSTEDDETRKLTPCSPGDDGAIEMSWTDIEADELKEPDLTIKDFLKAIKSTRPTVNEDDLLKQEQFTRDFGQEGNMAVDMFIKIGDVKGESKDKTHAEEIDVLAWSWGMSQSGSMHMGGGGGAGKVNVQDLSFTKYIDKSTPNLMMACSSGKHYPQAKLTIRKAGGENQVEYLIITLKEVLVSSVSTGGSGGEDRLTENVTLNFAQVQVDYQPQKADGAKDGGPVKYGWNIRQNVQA
T1 sequence (Q06263 280-330 partner limits assumed): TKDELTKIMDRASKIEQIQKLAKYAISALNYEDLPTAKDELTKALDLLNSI
Experiment: Fluorescence polarization binding of fluorescently labeled ESCRT-III peptide to Vps4^101-437-Hcp1
Parameters: species or system S. cerevisiae
Settings: 2:1 Vta1^VSL:Vps4 subunits, 1 mM ADP·BeFx, 1 nM fluorescent peptide, 20 mM HEPES pH 7.4, 100 mM NaCl, 10 mM MgCl2, 1 mM DTT, room temperature; per Vps4 hexamer; global fit of four independent experiments
Experimental: Fluorescence polarization assay for ESCRT-III peptide binding
When equilibrium was reached, parallel and perpendicular fluorescence intensities were measured on a Biotek Synergy Neo HTS microplate reader using an excitation wavelength of 485 nm and an emission wavelength of 528 nm.

CC[C@H](C)[C@H](NC(=O)[C@H](CCC(=O)O)NC(=O)[C@H](CC(=O)O)NC(=O)[C@H](CC(C)C)NC(=O)[C@@H](NC(=O)[C@H](CCCCN)NC(=O)[C@H](CC(N)=O)NC(=O)[C@@H](NC(=O)[C@@H](NC(=O)[C@H](CCC(=O)O)NC(=O)[C@H](CC(=O)O)NC(=O)c1ccc2c(c1)C(=O)OC21c2ccc(O)cc2Oc2cc(O)ccc21)[C@@H](C)CC)C(C)C)C(C)C)C(=O)NCC(=O)N[C@H](C(=O)N[C@@H](CC(=O)O)C(=O)N[C@@H](CC(C)C)C(=O)N[C@@H](CC(N)=O)C(=O)N[C@@H](CO)C(=O)N[C@@H](CCC(N)=O)C(=O)N[C@@H](CC(C)C)C(=O)N[C@@H](CCC(N)=O)C(N)=O)C(C)C [Peptide ‘20’] (HELM PEPTIDE1{[O=C1OC2(c3ccc(O)cc3Oc3cc(O)ccc32)c2ccc(C(=O)[*:2])cc21].D.E.I.V.N.K.V.L.D.E.I.G.V.D.L.N.S.Q.L.Q.[am]}$$$$V2.0) gave a Kd of 178 nM.
